Reference: patent US8642834B2, “Methods for the identification of agents that inhibit mesenchymal-like tumor cells or their formation” (OSI Pharmaceuticals, LLC, priority 2009, dated 2014)
No end group written: not given here.

Columns and labels:
CFPAC-1 cells [1] = assay: Induction of EMT by growth factors and cytokines, E-cadherin and vimentin immunoblotting; type: cell-based, human; details: CFPAC-1 cells treated 7 days with ligand
Experimental: The CFPAC1 cell line was cultured in DMEM media (Gibco #11960) supplemented with 10% FBS (Sigma), 2 mM L Glutamine (Gibco), at 37° C., 5% CO2. For 7 day treatments, cells were seeded on tissue culture plastic in complete growth media and allowed to attach overnight at cell densities that would provide approximately 60-80% confluence at end of experiment. Ligand and/or inhibitor was added the following day (Day 0) in complete growth media and incubated at 37° C., 5% CO2. Ligand source and concentrations used are as follows: [1] From R&D systems, SDF-1α (stromal derived factor-1 alpha) at 100 ng/ml, TRANCE (TNF-related activation induced cytokine) at 50 ng/ml, FGF1 (fibroblast growth factor acidic) at 10 ng/ml, FGF2 (fibroblast growth factor basic) at 10 ng/ml, BMP4 (bone morphogenetic protein 4) at 100 ng/ml, BMP7 (bone morphogenetic protein 7) at 100 ng/ml, IGF2 (insulin-like growth factor 2) at 100 ng/ml, OSM (Oncostatin M) at 100 ng/ml, NRG1 (Neuregulin-1) at 50 ng/ml, PDGFaa (Platelet derived growth factor a) at 50 ng/ml, PDGFbb (platelet derive growth factor b) at 30 ng/ml, Ang2 (Angiopoeitin 2) at 400 ng/ml, amphiregulin at 100 ng/ml, HMGB 1 (Human high-mobility group box 1 protein) at 50 ng/ml; [2] From Genscript, LIF (Leukemia inhibitory factor) at 20 ng/ml, GM-CSF (Granulocyte macrophage colony stimulating factor) at 25 ng/ml, M-CSF (Macrophage colony stimulating factor) at 50 ng/ml; [3] From Anaspec, PAR1 (Protease activated receptor 1 agonist) at 100 μM; PAR2 (Protease activated receptor 2 agonist; peptide SLIGKV-NH2, Cat. No. 60217-1) at 100 μM; PAR4 (Protease activated receptor […] agonist; peptide AYPGKF-NH2, Cat. No. 60218-1) at 100 μM; [4] From Peprotech, HGF (Hepatocyte Growth Factor) at 100 ng/ml; IL-31 (Interleukin-31) at 50 ng/ml, IL-33 (Interleukin-33) at 50 ng/ml, IL1-a (Interleukin-1 alpha) at 10 ng/ml, CTGF (Connective tissue growth factor) at 20 ng/ml, WISP1 (Wnt-1 inducible signaling pathway protein) at 20 ng/ml, PTHrP ([…] hormone-related protein) at 50 ng/ml, MCP1 (monocyte chemotactic protein-1) at 50 ng/ml; and [5] from Sigma, Fulvestrant at 1 μM. Fresh medium containing ligand and/or inhibitor was added 3-4 days after initial dose, and at Day 7 cells were harvested for western blot analysis.
Cells were harvested by washing once with PBS, and lysing on ice for 10 minutes with scraping (using a Cell Lifter, Corning Inc. #3008) in ice cold RIPA buffer (Sigma R0278) containing Protease inhibitor (Sigma P8340), Phosphatase inhibitors (Sigma P2850, P5726) and 200 μM Sodium Vanadate. Supernatents were micro-centrifuged at max speed, 4° C. for 10 minutes. Protein content was quantitated using the BCA method (Pierce #23225) and samples were normalized to total protein in Laemli buffer and heated at 100° C. for 10 minutes. SDS PAGE was run using a Bis-Tris gel system (Invitrogen NuPAGE) with MOPS buffer (Invitrogen NP0001), transferred onto nitrocellulose using the iBLOT system (Invitrogen) and blocked in PBS-T (0.1% Tween 20), 5% non-fat milk or BSA in guidance with primary Ab supplier requirements. All primary antibodies were incubated overnight at 4° C. in PBS-T (0.1% Tween 20) in either 5% non-fat milk or BSA, diluted to the following working dilutions: anti E Cadherin (Santa Cruz #sc-21791) 1:500 dilution; anti Vimentin (BD Biosciences #550513) 1:2000 dilution;); anti GAPDH HRP conjugate (Santa Cruz sc-25778) 1:1000 dilution; anti β-Actin (Sigma, A5441) 1:10,000 dilution. […]

CFPAC-1 cells [2] = assay: Inhibition of ligand-induced EMT by JAK or MEK inhibitor; type: cell-based, human; details: JAK inhibitor 0.25 μM
Experimental: Supernatents were micro-centrifuged at max speed, 4° C. for 10 minutes. […] SDS PAGE was run using a Bis-Tris gel system (Invitrogen NuPAGE) with MOPS buffer (Invitrogen NP0001), transferred onto nitrocellulose using the iBLOT system (Invitrogen) and blocked in PBS-T (0.1% Tween 20), 5% non-fat milk or BSA in guidance with primary Ab supplier requirements. […] Secondary HRP labeled antibodies used were: anti Rabbit IgG HRP (Amersham NA934) 1:5000 dilution; anti Mouse IgG HRP (Sigma A2304) 1:2000 dilution. Membranes were visualized using the Supersignal ELISA Femto Maximum Sensitivity Substrate (Pierce).

[3] = test system: advanced, treatment-refractory NSCLC; details: phase III, monotherapy, patients with advanced; cited from earlier work
pancreatic cancer = details: phase III, first-line, in combination with gemcitabine; cited from earlier work

With “AYPGKF-NH2 [PAR4 agonist AYPGKF-NH2, reference compound]” the “Induction of EMT (E-cadherin down, vimentin up)” value (from here on “Induction of EMT”) (CFPAC-1 cells [1]) was “Partial EMT”.

With `CC(C)(C)c1nc2c3cc[nH]c(=O)c3c3cc(F)ccc3c2[nH]1` [JAK inhibitor] the “Block of morphology change” value (CFPAC-1 cells [2]; CFPAC-1 cells treated with OSM 7 days, light microscopy) was “blocked the morphology change” and the “Block of EMT process” value (CFPAC-1 cells [2]; OSM-triggered EMT, 7 days, MEK inhibitor 3 μM) was “could block EMT process”.

In the case of “LIF: Leukemia inhibitory factor, Genscript, 20 ng/ml”, the “Induction of EMT” value (CFPAC-1 cells [1]) is reported as “Partial EMT”.

With “SLIGKV-NH2 (UniProt P55085 37-42, looked up, fragment) [PAR2 agonist SLIGKV-NH2, reference compound]” the “Induction of EMT” value (CFPAC-1 cells [1]) was “Partial EMT”.

For `C#Cc1cccc(Nc2ncnc3cc(OCCOC)c(OCCOC)cc23)c1` [erlotinib, [6,7-bis(2-methoxyethoxy)-4-quinazolin-4-yl]-(3-ethynylphenyl) amine], the “Survival, disease progression, lung cancer-related symptoms” value [3] is given as “significantly prolonged survival, delayed disease progression and delayed worsening of lung cancer-related symptoms” and the Survival (pancreatic cancer) is given as “improves survival”.

With “IGF2: insulin-like growth factor 2, R&D systems, 100 ng/ml” the “Induction of EMT” value (CFPAC-1 cells [1]) was “Partial EMT”.
